Reference: the supplement of paper PMC8967900

Legend:
Assay in all cases: selective drug sensitivity score (sDSS, relative to normal bone marrow) (sDSS (score)); higher = more potent and effective on the cell line relative to normal bone marrow cells
Settings in all cases: 72 h
[1] = tested on: COG-LL-394h
[2] = tested on: MN-60
[3] = tested on: MOLT-16
[4] = tested on: LC4-1
[5] = tested on: 697
[6] = tested on: P12-ICHIKAWA
[7] = tested on: MOLT-4
[8] = tested on: KARPAS-45
[9] = tested on: ALL-SIL
[10] = tested on: RPMI-8402
[11] = tested on: NALL-1
[12] = tested on: MHH-CALL-2
[13] = tested on: KOPN-8
[14] = tested on: PEER
[15] = tested on: ALL-PO
[16] = tested on: TMD5
[17] = tested on: CCRF-CEM
[18] = tested on: SEM cells
[19] = tested on: MHH-CALL-4
[20] = tested on: MOLT-14
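Note: ALL cell lines in 384-well plates, five doses spanning 10,000-fold, each plate scaled between vehicle and 100 µmol/L benzalkonium chloride controls, sDSS an adapted area-under-curve metric.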

| SMILES | selective drug sensitivity score [1] | selective drug sensitivity score [2] | selective drug sensitivity score [3] | selective drug sensitivity score [4] | selective drug sensitivity score [5] | selective drug sensitivity score [6] | selective drug sensitivity score [7] | selective drug sensitivity score [8] | selective drug sensitivity score [9] | selective drug sensitivity score [10] | selective drug sensitivity score [11] | selective drug sensitivity score [12] | selective drug sensitivity score [13] | selective drug sensitivity score [14] | selective drug sensitivity score [15] | selective drug sensitivity score [16] | selective drug sensitivity score [17] | selective drug sensitivity score [18] | selective drug sensitivity score [19] | selective drug sensitivity score [20] |
| --- | --- | --- | --- | --- | --- | --- | --- | --- | --- | --- | --- | --- | --- | --- | --- | --- | --- | --- | --- | --- |
| NCCNc1ccc(NCCN)c2c1C(=O)c1ccncc1C2=O [Pixantrone] (top concentration 10000 nM) | -2.66 | -2.76 | -2.46 | -2.76 | -0.36 | -2.76 | -2.76 | -0.86 | -2.76 | -2.76 | -2.76 | 1.34 | -0.56 | -2.76 | -2.76 | -2.06 | -2.06 | -1.36 | -2.56 | -2.76 |
| c1cc(CN2CCCNCCNCCCNCC2)ccc1CN1CCCNCCNCCCNCC1 [Plerixafor] (top concentration 10000 nM) | 0 | 0 | 0 | 0 | 0.7 | 0 | 0 | 0 | 0 | 0 | 0 | 0 | 0 | 0 | 0 | 0 | 0 | 0 | 0 | 0 |
| O=C(c1ccc(OCCN2CCCCC2)cc1)c1c(-c2ccc(O)cc2)sc2cc(O)ccc12 [Raloxifene] (top concentration 10000 nM) | 0.42 | 1.92 | 1.02 | -0.38 | -0.28 | -0.48 | 1.42 | 3.32 | 1.72 | 1.92 | -2.28 | 0.22 | 0.52 | 0.82 | -0.38 | -1.88 | 1.42 | 1.62 | -2.28 | 2.92 |
| CN(C)C(=O)c1cc2cnc(Nc3ccc(N4CCNCC4)cn3)nc2n1C1CCCC1 [Ribociclib] (top concentration 10000 nM) | -2.02 | -1.62 | 4.88 | 4.18 | 8.18 | 2.18 | -1.02 | 0.68 | -1.12 | 2.98 | -1.62 | 3.68 | 1.68 | 3.18 | 0.98 | 0.78 | 3.08 | 2.28 | -1.42 | 1.18 |
| CN1CCN(CCOc2cc(OC3CCOCC3)c3c(Nc4c(Cl)ccc5c4OCO5)ncnc3c2)CC1 [Saracatinib] (top concentration 10000 nM) | -2.02 | 3.38 | 2.38 | 2.98 | 4.28 | 0.08 | 1.58 | 5.68 | 17.7 | 4.98 | -2.02 | -0.52 | 2.38 | 7.38 | -0.02 | 0.58 | -1.52 | 0.08 | -2.02 | 7.98 |
| C=CC(=O)Nc1cccc(Nc2nc(Nc3ccc(OCCOC)cc3)ncc2F)c1 [Spebrutinib] (top concentration 1000 nM) | -0.16 | -0.16 | 0.64 | 0.54 | 1.94 | -0.16 | -0.16 | 1.14 | 1.64 | -0.16 | 6.34 | 5.84 | -0.16 | 0.74 | 4.14 | -0.16 | 1.64 | 3.74 | 3.24 | -0.16 |
| C[C@@H]1CN(Cc2ccc(F)cc2)[C@@H](C)CN1C(=O)c1cc2c(C(=O)C(=O)N(C)C)cn(C)c2cc1Cl [Talmapimod] (top concentration 10000 nM) | 0.7 | 0 | 0 | 0 | 1 | 0 | 0 | 0 | 2.1 | 0.8 | 0 | 0 | 0 | 0 | 3.2 | 0 | 0 | 0.4 | 0 | 0 |
| C[C@@H](C(=O)O)c1ccc(-c2ccccc2)c(F)c1 [Tarenflurbil] (top concentration 10000 nM) | -0.16 | -0.16 | 5.04 | 0.64 | -0.16 | -0.16 | 0.14 | -0.16 | -0.16 | -0.16 | 4.34 | -0.16 | -0.16 | -0.16 | -0.16 | 3.64 | -0.16 | -0.16 | -0.16 | -0.16 |
| CNC(=O)c1cc(COc2nnc(Nc3ccc(Cl)cc3)c3ccoc23)ccn1 [Telatinib] (top concentration 10000 nM) | 0 | 0 | 0 | 0.7 | 1.6 | 0 | 0 | 0 | 0 | 0 | 0 | 0.4 | 0.9 | 0 | 0 | 0.9 | 0 | 0.2 | 0 | 0 |
